One assay has as its target HPK1 (Homo sapiens, UniProt Q92918). The assay can be described thus: HPK1 biochemical assay (ADP-GLO Kinase Assay). From the text: IC50 values of any compounds can be determined accordingly over a range of inhibitor concentrations. In addition, the inhibitory effect of the compounds can also be assess using a biological assay, to determine the effect of the compounds on cytokine secretion by T cells following TCR and CD28 stimulation.
Biology Example 1 HPK1 Biochemical Assay
This example used the ADP-GLO™ Kinase Assay to measure the effect of potential HPK1 inhibitor compounds on HPK1 kinase activity.
The ADP-GLO™ Kinase Assay (Promega Corp., Madison, WI) measures ADP formed from a kinase reaction. According to the manufacture, the ADP formed in a kinase assay is first converted into ATP, which is then used to generate light in a luciferase reaction. The luminescence generated correlates with kinase activity. An exemplary experimental setting is described below, though minor adjustments can be made in individual assays.
Serial 3-fold dilution of compounds from 10 μM (top concentration) to 0.508 nM (lowest concentration). Positive control is 10 μM Reference+enzyme+substrate. Negative control is 1% DMSO+enzyme+substrate.
• 1. Buffer Preparation • 40 mM Tris pH7.5; 20 mM MgCl2, 0.1 mg/ml BSA, 50 μM DTT Buffer Stock
Add 20 mL 1M Tris and 10 mL 1M MgCl2 to 470 mL ddH2O to get buffer stock, and stock at RT. • 2. Preparing Fresh 1* Assay Buffer
• 3. Compounds Preparation • 1) The compounds were diluted to 1 mM, by mixing 10 μL of 10 mM respective compound stocks with 90 μL of DMSO. • 2) The compounds were then diluted 3-fold for 10 doses (5 μL to 10 μL dilution) by BRAVO. The top compound conc. was 1 mM (100×), DMSO Conc. was 100%. • 3) Transfer 100 nL of each diluted compound sample to 384-well plate (Corning-4512) by ECHO. • 4) Centrifuge the plate at 1,500 rpm for 1 minute. • 4. Preparation of 2×ATP-MBP Mixture: • 20 μM ATP, 0.2 μg/μL MBP in Kinase Buffer (final concentration: 10 μM ATP, 0.1 MBP)
• 5. Preparation of 2×HPK1 working solution with assay buffer. • HPK1 final concentration was 0.6 ng/μL. […] Incubate at 25° C. for 40 min. • 11. Record luminescence signal on an Envision plate reader (384-CTG). 5. Data Analysis
The percent (%) inhibition at each concentration of compound is calculated based on and relative to the signal in the High and Low control wells contained within each assay plate. […] The concentrations and % inhibition values for tested compounds were plotted and the concentration of compound required for 50% inhibition (IC50) was determined with a Three-parameter logistic dose response equation. The endpoint value (IC50) for the reference peptide/compound was evaluated in each experiment as a quality control measure. If the endpoint value was within 3-fold of the expected value, then the experiment was deemed acceptable.

The target of another assay is T1, JAK3 (Homo sapiens, UniProt P52333).
T1 construct: purchased Thermo fisher PV3855
The assay can be described thus: JAK3 biochemical assay (ADP-GLO Kinase Assay). The following applies: for JAKs/HPK1 IC50 Ratio, B* / JAKs/HPK1 IC50 Ratio, N*: ratio of JAK3 IC50 to HPK1 IC50; for JAKs/HPK1 IC50 Ratio, B*: first testing facility; for JAKs/HPK1 IC50 Ratio, N*: second testing facility. How it is done:
Biology Example 4 JAK3 Biochemical Assay
This example used the ADP-GLO™ Kinase Assay to measure the effect of potential HPK1 inhibitor compounds on JAK3 kinase activity. An exemplary experimental setting is described below, though minor adjustments can be made in individual assays.
3. Procedures • 1. Prepare JAK3 kinase buffer • Freshly adding DTT and BSA into Buffer (Final Conc.: 40 mM Tris pH7.5; 20 mM MgCl2, 0.1 mg/ml BSA, 50 μM DTT).
• 2. Compounds Preparation • For tested compounds: compounds were diluted to 1 mM, by mixing 5 μL of 10 mM compound stocks to 45 μL DMSO. The compounds solutions were then serially diluted 3-fold for 10 doses. The top compound concentration was 1 mM (100×), DMSO concentration was 100%. • 50 nL of each of 10 doses of diluted compound were added to 384-well assay plate (Corning #4512) by ECHO. • For positive control, 50 nL of 1 mM reference compound were added to 384-well assay plate (Corning #4512) by ECHO. • For negative control: 50 nL of DMSO was transferred into 384-well assay plate as a negative control. • The assay plate was centrifuged at 1,500 rpm for 1 minute. • 3. Compounds were Transferred by ECHO Following the Layout Below: • Reference and test compounds 1-15: serial 3-fold dilution from 10 μM to 0.508 nM (10 doses); negative control is 0.78 ng JAK3, 4 μM ATP & 0.2 μg/μL poly, 1% DMSO; positive control is the top dose of the reference compound, 0.78 ng JAK3, 0.2 μg/μL Poly(E4Y1), 4 μMATP, 1% DMSO. • 4. Add 2.5 μL/well of 2×JAK3 working solution using pipette (Thermo, 30 μL multi-channel), Centrifuge at 1,500 rpm for 1 minute. • 5. Add 2.5 μL/well of 2×ATP-Poly(E4Y1) working mixture using pipette (Thermo, 30 μL multi-channel), Centrifuge at 1,500 rpm for 1 minute. • 6. Incubate the assay plate at 25° C. for 60 min. • 7. Add 5 μL/well ADP-GLO™ Reagent by BRAVO to stop the kinase reaction and deplete the unconsumed ATP after 1 hour. Centrifuge at 1,500 rpm for 1 minute. Incubate at 25° C. for 40 min. • 8. Add 10 uL of Kinase Detection Reagent by BRAVO to convert ADP to ATP. Centrifuge at 1,500 rpm for 1 minute. Incubate at 25° C. for 40 min. • 9. Record luminescence signal on an Envision plate reader (384-USL). • 10. Process data using XL-fit. Inhibition %=[1-(test well−Negative control)/(positive control−Negative control)]*100%. 5. Data Analysis
The percent (%) inhibition at each concentration of compound is calculated based on and relative to the signal in the Negative and Positive control wells contained within each assay plate. The Negative control wells served as 0% inhibition, and the Positive control wells served as 100% inhibition. The concentrations and % inhibition values for tested compounds are plotted and the concentration of compound required for 50% inhibition (IC50) is determined with a Three-parameter logistic dose response equation. The endpoint value (IC50) for the reference peptide/compound is evaluated in each experiment as a quality control measure. If the endpoint value was within 3-fold of the expected value then the experiment was deemed acceptable.

Setting [1] is: B*: testing performed in a first testing facility, read-out: HPK1 IC50 (nM) Relative, B*.
The mark [2] stands for this setting: B*: testing performed in a first testing facility, read-out: JAK3 IC50 (nM) Relative, B*.
Where [3] appears, read: N*: testing performed in a second testing facility, read-out: HPK1 IC50 (nM) Relative, N*.
The mark [4] stands for this setting: N*: testing performed in a second testing facility, read-out: JAK3 IC50 (nM) Relative, N*.

Each structure is given as a SMILES string. Like-named read-outs stand apart in the source and are kept apart here.

T1 sequence (P52333 781-1124 limits assumed): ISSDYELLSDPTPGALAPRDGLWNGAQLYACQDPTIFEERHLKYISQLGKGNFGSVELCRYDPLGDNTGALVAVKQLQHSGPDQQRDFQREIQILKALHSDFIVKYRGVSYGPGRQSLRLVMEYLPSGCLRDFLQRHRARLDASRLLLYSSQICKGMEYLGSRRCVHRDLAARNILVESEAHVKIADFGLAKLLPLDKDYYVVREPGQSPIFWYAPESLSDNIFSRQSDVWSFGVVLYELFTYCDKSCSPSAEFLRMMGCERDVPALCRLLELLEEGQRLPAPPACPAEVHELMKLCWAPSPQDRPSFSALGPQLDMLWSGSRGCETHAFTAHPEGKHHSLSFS
Chain of HPK1 (Q92918 whole entry): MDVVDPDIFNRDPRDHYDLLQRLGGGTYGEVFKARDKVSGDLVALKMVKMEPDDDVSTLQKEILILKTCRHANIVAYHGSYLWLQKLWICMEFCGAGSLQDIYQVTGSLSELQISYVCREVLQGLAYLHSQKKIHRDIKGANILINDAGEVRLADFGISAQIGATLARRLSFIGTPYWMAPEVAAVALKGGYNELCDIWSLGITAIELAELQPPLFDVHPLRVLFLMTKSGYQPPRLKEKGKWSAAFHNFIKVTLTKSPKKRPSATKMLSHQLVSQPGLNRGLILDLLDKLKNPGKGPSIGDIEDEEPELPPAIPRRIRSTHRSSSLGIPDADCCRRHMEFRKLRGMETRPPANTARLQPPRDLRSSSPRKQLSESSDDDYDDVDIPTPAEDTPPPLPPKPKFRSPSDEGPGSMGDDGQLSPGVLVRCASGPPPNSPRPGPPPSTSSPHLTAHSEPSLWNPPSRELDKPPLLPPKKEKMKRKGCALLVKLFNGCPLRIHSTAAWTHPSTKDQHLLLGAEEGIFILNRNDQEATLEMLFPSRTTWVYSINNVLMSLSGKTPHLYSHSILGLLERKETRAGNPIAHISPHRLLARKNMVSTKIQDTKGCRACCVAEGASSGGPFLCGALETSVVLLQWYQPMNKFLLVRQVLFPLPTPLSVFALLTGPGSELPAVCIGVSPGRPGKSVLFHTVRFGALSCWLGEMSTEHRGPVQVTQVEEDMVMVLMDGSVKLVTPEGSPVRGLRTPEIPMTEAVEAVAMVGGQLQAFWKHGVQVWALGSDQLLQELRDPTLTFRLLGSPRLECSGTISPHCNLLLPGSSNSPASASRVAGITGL

On to `COc1cc2c(cc1Nc1ncc3ccn(-c4ccccc4P(C)(C)=O)c3n1)CN(C)CC2` [Example 39, (2-(2-((6-Methoxy-2-methyl-1,2,3,4-tetrahydroisoquinolin-7-yl)amino)-7H-pyrrolo[2,3-d]pyrimidin-7-yl)phenyl)dimethylphosphine oxide], for which the IC50 was 500 to 1000 nM on HPK1 (setting [1]) and greater than 1000 nM at JAK3 (setting [2]). Besides, on JAK3, the “JAKs/HPK1 IC50 Ratio, B*” value is greater than 18.

Regarding `COc1cc2c(cc1Nc1ncc3ccn(-c4cccnc4C)c3n1)CN(C)CC2` [Example 41, 6-Methoxy-2-methyl-N-(7-(2-methylpyridin-3-yl)-7H-pyrrolo[2,3-d]pyrimidin-2-yl)-1,2,3,4-tetrahydroisoquinolin-7-amine], the IC50 was no more than 100 nM at HPK1 (setting [1]) and 100 to 500 nM on JAK3 (setting [2]). Also, the “JAKs/HPK1 IC50 Ratio, B*” value at JAK3 came to 30.

In the case of `COc1cc2c(cc1Nc1ncc3ncn(-c4ccccc4)c3n1)CN(C)CC2` [Example 43, 6-Methoxy-2-methyl-N-(9-phenyl-9H-purin-2-yl)-1,2,3,4-tetrahydroisoquinolin-7-amine], the IC50 on HPK1 (setting [1]), on HPK1 (setting [3]) and on JAK3 (setting [4]) was greater than 1000 nM each time. The “JAKs/HPK1 IC50 Ratio, N*” value at JAK3 is listed as greater than 10.

Turning to `COc1cc2c(cc1Nc1ncc3ncn(-c4ccccc4C(=O)N(C)C)c3n1)CN(C)CC2` [Example 44, 2-(2-((6-Methoxy-2-methyl-1,2,3,4-tetrahydroisoquinolin-7-yl)amino)-9H-purin-9-yl)-N,N-dimethylbenzamide], the IC50 at HPK1 (setting [1]), at HPK1 (setting [3]) and at JAK3 (setting [4]) was greater than 1000 nM each time. Moreover, the “JAKs/HPK1 IC50 Ratio, N*” value on JAK3 is greater than 10.

Consider `COc1cc2c(cc1Nc1ncc3c(n1)N(c1ccccc1P(C)(C)=O)CCO3)CN(C)CC2` [Example 47, (2-(2-((6-Methoxy-2-methyl-1,2,3,4-tetrahydroisoquinolin-7-yl)amino)-6H-pyrimido[5,4-b][1,4]oxazin-8(7H)-yl)phenyl)dimethylphosphine oxide], for which the IC50 at HPK1 (setting [1]) was 100 to 500 nM; on JAK3 (setting [2]), greater than 1000 nM. The “JAKs/HPK1 IC50 Ratio, B*” value at JAK3 is greater than 22.

Regarding `COc1cc2c(cc1Nc1ncc(Cl)c(-c3cncc4ccccc34)n1)CN(C)CC2` [Example 48, N-(5-chloro-4-(isoquinolin-4-yl)pyrimidin-2-yl)-6-methoxy-2-methyl-1,2,3,4-tetrahydroisoquinolin-7-amine], the IC50 was no more than 100 nM at HPK1 (setting [1]) and greater than 1000 nM at JAK3 (setting [2]). The “JAKs/HPK1 IC50 Ratio, B*” value at JAK3 is reported as greater than 179.

With `CCc1c[nH]c2ncc(-c3ccc(C)c(P(C)(C)=O)c3)cc12` [Example 50, (5-(3-Ethyl-1H-pyrrolo[2,3-b]pyridin-5-yl)-2-methylphenyl)dimethylphosphine oxide], the IC50 at HPK1 (setting [1]) was no more than 100 nM; at HPK1 (setting [3]) it was no more than 100 nM; at JAK3 (setting [2]), greater than 1000 nM; on JAK3 (setting [4]) it was greater than 1000 nM. Moreover, the “JAKs/HPK1 IC50 Ratio, B*” value at JAK3 is on record as 163. Moreover, the “JAKs/HPK1 IC50 Ratio, N*” value at JAK3 amounted to 101.

Regarding `CCc1c[nH]c2ncc(-c3ccc(F)c(P(C)(C)=O)c3)cc12` [Example 51, (5-(3-Ethyl-1H-pyrrolo[2,3-b]pyridin-5-yl)-2-fluorophenyl)dimethylphosphine oxide], the results for the half-inhibitory concentration (IC50) on HPK1 (setting [1]) and at JAK3 (setting [2]) were no more than 100 nM and greater than 1000 nM, respectively. Besides, the “JAKs/HPK1 IC50 Ratio, B*” value at JAK3 is listed as 51.

As for `CCc1c[nH]c2ncc(-c3ccc(O)c(P(C)(C)=O)c3)cc12` [Example 55, (5-(3-Ethyl-1H-pyrrolo[2,3-b]pyridin-5-yl)-2-hydroxyphenyl)dimethylphosphine oxide], the concentration for half-maximal inhibition (IC50) at HPK1 (setting [1]) was no more than 100 nM; on JAK3 (setting [2]) it was 100 to 500 nM. The “JAKs/HPK1 IC50 Ratio, B*” value at JAK3 turned out to be 20.

For the molecule `CCc1c[nH]c2ncc(-c3cc(N)cc(P(C)(C)=O)c3)cc12` [Example 57, (3-Amino-5-(3-ethyl-1H-pyrrolo[2,3-b]pyridin-5-yl)phenyl)dimethylphosphine oxide], the IC50 at HPK1 (setting [1]) is no more than 100 nM; on JAK3 (setting [2]), 500 to 1000 nM. On JAK3, the “JAKs/HPK1 IC50 Ratio, B*” value was 22.

`CCc1c[nH]c2ncc(-c3ccc(NC(C)=O)c(P(C)(C)=O)c3)cc12` [Example 58, N-(2-(dimethylphosphoryl)-4-(3-ethyl-1H-pyrrolo[2,3-b]pyridin-5-yl)phenyl)acetamide]: the IC50 at HPK1 (setting [1]) is no more than 100 nM; at JAK3 (setting [2]), 100 to 500 nM. Moreover, the “JAKs/HPK1 IC50 Ratio, B*” value on JAK3 stood at 4.

For `CCc1c[nH]c2ncc(-c3ccc(F)c(P(C)(C)=O)c3N)cc12` [Example 60, (2-Amino-3-(3-ethyl-1H-pyrrolo[2,3-b]pyridin-5-yl)-6-fluorophenyl)dimethylphosphine oxide], the IC50 at HPK1 (setting [1]) was no more than 100 nM; on JAK3 (setting [2]), greater than 1000 nM. Moreover, at JAK3, the “JAKs/HPK1 IC50 Ratio, B*” value is on record as 25.

Regarding `CCc1c[nH]c2ncc(-c3ccc(C(F)F)c(P(C)(C)=O)c3)cc12` [Example 61, (2-(Difluoromethyl)-5-(3-ethyl-1H-pyrrolo[2,3-b]pyridin-5-yl)phenyl)dimethylphosphine oxide], the IC50 was 100 to 500 nM on HPK1 (setting [1]) and greater than 1000 nM at JAK3 (setting [2]). The “JAKs/HPK1 IC50 Ratio, B*” value on JAK3 is on record as 15.

Take `CCc1c[nH]c2ncc(-c3ccc(C)c(P(C)(C)=O)c3F)cc12` [Example 62, (3-(3-Ethyl-1H-pyrrolo[2,3-b]pyridin-5-yl)-2-fluoro-6-methylphenyl)dimethylphosphine oxide]: the IC50 was no more than 100 nM at HPK1 (setting [1]) and greater than 1000 nM on JAK3 (setting [2]). In addition, the “JAKs/HPK1 IC50 Ratio, B*” value at JAK3 is on record as 54.

(Values after patent US12612424B2, “HPK1 inhibitors and uses thereof” (Regor Pharmaceuticals, Inc., priority 2019, dated 2026).)
